Test results taken from publication PMC4735555, “Crystal structure of the N-myristoylated lipopeptide-bound MHC class I complex” (Nature Communications, 2016).

Legend:
2N5.1 TCR = test: SPR binding of soluble 2N5.1 TCR to antigen-loaded Mamu-B*098; parameters: species or system rhesus macaque; conditions: in words; Biacore 3000, 30 °C; soluble 2N5.1 TCR αβ dimer; lipopeptide-loaded Mamu-B*098 immobilized; pH 7.5
Source text: Single-chain MHC proteins in which β2m was linked via a Gly-Ser linker (GGGGSGGSGSGGGSS) to the ectodomain of either Mamu-B*098 or Mamu-A*02, followed by a biotinylation sequence peptide (LHHILDAQKMVWNHR), were also expressed in E. coli and were purified in a similar manner to the trimer complex of Mamu-B*098, β2m and C14nef5. The β2m-linked Mamu-B*098 protein was refolded without C14nef5, whereas the β2m-linked Mamu-A*02 protein was refolded in the presence of the YY9 peptide (YTSGPGIRY). These recombinant proteins (3 mg) were biotinylated by being incubated for 12 h at 20 °C with 2 μg of BirA enzyme (Sigma-Aldrich, St Louis, MO) in a biotinylation buffer containing 100 mM Tris-HCl pH 8.0, 5 mM MgCl2, 4.5 mM ATP and 4 mM D-biotin, and were purified by size-exclusion chromatography.
TCR dimers were generated by the disulfide-linked TCR method. […]
The binding of ligands to MHC class I molecules was analysed using the Octet RED96 system equipped with a streptavidin-conjugated biosensor (Pall ForteBio, Menlo Park, CA) according to the manufacturer's instructions. […] After reference subtraction, binding signals were analysed using the BIAevaluation 3.1 software. […]

[1] = tested on: 2N5.1 (LLC-MK2 cells transfected with other rhesus MHC class I genes); test: Ag presentation by other (non-B*098) Mamu class I LLC-MK2 transfectants to 2N5.1; type: cell-based, rhesus macaque; conditions: LLC-MK2 transfected with each rhesus MHC class I cDNA clone, other than Mamu-B*098; IFN-γ; C14nef5
Procedure: Figure 1 Identification of Mamu-B*098 as a lipopeptide Ag-presenting molecule. (a) LLC-MK2 cells transfected with each of the rhesus MHC class I genes were tested for their ability to present C14nef5 to 2N5.1. […] PBMCs obtained from a donor with the potential to present C14nef5 to 2N5.1 were used as a positive control. Experiments were performed in triplicate. Mean values with s.e.m. are shown. (b) The binding of lipopeptide Ags to recombinant β2m-linked Mamu-B*098 and Mamu-A*02 proteins was monitored by biolayer interferometry. Representative data from three independent experiments are shown. Mamu-A*02, a rhesus MHC class I allele known to bind 9-mer peptides, was used as a negative control. (c) Plate-coated MHC class I molecules were tested for their ability to present lipopeptide Ags to 2N5.1. The Ag-specific T-cell response was assessed by measuring the amount of IFN-γ released into the culture medium. Mean values with s.e.m. are shown. […] The original data (coloured as indicated) are depicted with the curve fit (grey) overlaid. The steady-state affinity plot (inset) is also shown. Three independent experiments were performed and mean equilibrium-dissociation constant (KD) values ±s.d. are shown. (e) Amino acid sequences of Mamu-B*098, HLA-B*27:09, Mamu-B*17:01 and human CD1a are shown. […] Solid and open triangles indicate paired and unpaired cysteine residues, respectively. […]

Q: What does the source list for “C14-Gly-Gly-Ala-Ile-Ser [C14nef5, N-myristoylated 5-mer peptide (C14-Gly-Gly-Ala-Ile-Ser; C14nef5) derived from the SIV Nef protein]”?
A: interaction of 2N5.1 TCR with lipopeptide-loaded Mamu-B*098 (SPR) (2N5.1 TCR): high-affinity interaction; Ag presentation capacity of other Mamu class I transfectants [1]: None of the cell transfectants exhibited the Ag presentation capacity
